Measurements from patent US20080145427A1, “Dosage Forms Providing Controlled and Immediate Release of Cholesteryl Ester Transfer Protein Inhibitors and Immediate Release of Hmg-Coa Reductase Inhibitors” (priority 2005, published 2008).

Assay: Aqueous solubility of torcetrapib
Format: physicochemical
Details: aqueous environment, at about 22° C. unless otherwise specified
Procedure: The CETP inhibitor may be any compound capable of inhibiting the cholesteryl ester transfer protein. The CETP inhibitor is typically “sparingly water-soluble,” which means that the CETP inhibitor has a minimum aqueous solubility of less than about 1 to 2 mg/mL at any physiologically relevant pH (e.g., pH 1-8) and at about 22° C. Many CETP inhibitors are “substantially water-insoluble,” which means that the CETP inhibitor has a minimum aqueous solubility of less than about 0.01 mg/mL (or 10 μg/mL) at any physiologically relevant pH (e.g., pH 1-8) and at about 22° C. (Unless otherwise specified, reference to aqueous solubility herein and in the claims is determined at about 22° C.) Compositions of the present invention find greater utility as the solubility of the CETP inhibitors decreases, and thus are preferred for CETP inhibitors with solubilities less than about 10 μg/mL, and even more preferred for CETP inhibitors with solubilities less than about 1 μg/mL. Many CETP inhibitors have even lower solubilities (some even less than 0.1 μg/mL), and require dramatic concentration enhancement to be sufficiently bioavailable upon oral dosing for effective plasma concentrations to be reached at practical doses. […]

Molecule `CCOC(=O)N1c2ccc(C(F)(F)F)cc2[C@@H](N(Cc2cc(C(F)(F)F)cc(C(F)(F)F)c2)C(=O)OC)C[C@H]1CC` [torcetrapib, [2R,4S]-4-[(3,5-bis-trifluoromethyl-benzyl)-methoxycarbonyl-amino]-2-ethyl-6-trifluoromethyl-3,4-dihydro-2H-quinoline-1-carboxylic acid ethyl ester] has a solubility of less than 0.04 µg/mL.
